Patent US11993640B2, “Treating inflammatory lung disease” (United States Government as represented by the Department …, priority 2019, dated 2024)
pIC50: −log10 of the molar value. Entries after “also recorded” stand apart in the source; their conditions may differ. Non-standard residues stand in square brackets, D forms with d. Residues, ends and D or L forms follow the SMILES beside them. *: point of attachment. Phenylacetyl(2,3,4,5,6-F5) = O=C(Cc1c(F)c(F)c(F)c(F)c1F)*; Phe(F5) = N[C@@H](Cc1c(F)c(F)c(F)c(F)c1F)C(=O)O; Phe(4-Cl) = N[C@@H](Cc1ccc(Cl)cc1)C(=O)O; hArg = N=C(N)NCCCC[C@H](N)C(=O)O; 12Ado = NCCCCCCCCCCCC(=O)O; Nle = CCCC[C@H](N)C(=O)O; Orn = NCCC[C@H](N)C(=O)O; Abu = CC[C@H](N)C(=O)O

Assays:
HCC827 cells = test: In vitro cell viability, lung cancer HCC827; assay type: cell-based, human; details: 5 μM, 72 h; relative to MIA602 = 1; Table 3A
Experimental: (§1) The inhibitory effects of the various synthesized GHRH antagonists were tested in cell proliferation assays in various human cancer cell lines including stomach cancer (KATOIII, N87), colon cancer (HT-29), urothelial cancer (J82, RT4), pancreatic cancer (PANC-1, CFPAC-1), prostatic cancer (PC3), breast cancer (MX-1, HCC1806), ovarian cancer (SK-OV-3, OVCAR-3) and lung cancer (HCC827, H460).
(§2) Cell culture. Human cancer cell lines including pancreatic (PANC-1 and CFPAC-1), lung (HCC827 and H460), stomach (NCI-N87 and KATOIII), urothelial (J82, RT4), prostatic (PC3), breast (MX-1 and HCC 1806), colorectal (HT-29), and ovarian (SK-OV-3 and OVCAR-3) were obtained from the American Type Culture Collection (ATCC) and cultured at 37° C. in a humidified 95% air/5% CO2 atmosphere in the medium recommended by ATCC.
(§3) In vitro cell viability. Cell viability was analyzed as follows: cancer cells including pancreatic (PANC-1 and CFPAC-1), lung (HCC827 and H460), stomach (NCI-N87 and KATOIII), urothelial (J82, RT4), prostatic (PC3) and breast (MX-1 and HCC 1806), colorectal (HT-29) and ovarian (SK-OV-3 and OVCAR-3) were grown on 96 well plates to ˜60% confluence, the cells were starved for 24 h in culture medium containing 0.5% FBS. Cells were then treated with GHRH antagonists MIA602 AVR compounds at concentrations of 1, 2.5 or 5 μM, or vehicle (0.1% DMSO) in quintuplicates for 72 hours. The medium was replaced every 48 hours. Cell viability was measured using CellTiter 96 aqueous one solution kit (Promega). Inhibitory effects of tested AVR compounds in comparison to that of MIA602 are presented as inhibitory potency.
(§4) Inhibitory effects of selected AVR compounds in comparison to that of MIA602 are presented as inhibitory potency (e.g., percentage of inhibition). […] The cell lines tested including lung cancer HCC827 (FIG. 2A), pancreatic cancer CFPAC-1 (FIG. 2B), stomach cancer N87 (FIG. 2C), colon cancer HT-29 (FIG. 2D), breast cancers MX-1 and HCC1806 (FIGS. 2E, F). Based on the results of cell proliferation assay after cancer cells were treated with antagonist at concentration of 5 μM for 72H, the relative inhibitory potency of AVR antagonists in comparison to MIA-602 is summarized in Table 3 A and B. Over 60 AVR compounds were tested in 12 cancer cell lines.
(§5) Based on the results of cell proliferation assay after cancer cells were treated with antagonist at concentration of 5 µM for 72H, * at concentration of 2 µM for 72 H.

CFPAC-1 cells = test: In vitro cell viability, pancreatic cancer CFPAC-1; assay type: cell-based, human; details: 5 μM, 72 h; relative to MIA602 = 1; Table 3A
Experimental: as §1, §2, §3, §4, §5

[1] = molecular target: T1, membrane GHRH-receptors on human anterior pituitary cells (Homo sapiens, UniProt Q02643); test: Competitive receptor binding, displacement of 125I-[His1,Nle27]-hGH-RH(1-32)NH2 from human pituitary membranes
T1 construct: Human pituitary was purchased from the National Hormone and Peptide Program; tissue National Hormone and Peptide Program; host or cells: human pituitary membrane fractions
T1 sequence (Q02643 23-423): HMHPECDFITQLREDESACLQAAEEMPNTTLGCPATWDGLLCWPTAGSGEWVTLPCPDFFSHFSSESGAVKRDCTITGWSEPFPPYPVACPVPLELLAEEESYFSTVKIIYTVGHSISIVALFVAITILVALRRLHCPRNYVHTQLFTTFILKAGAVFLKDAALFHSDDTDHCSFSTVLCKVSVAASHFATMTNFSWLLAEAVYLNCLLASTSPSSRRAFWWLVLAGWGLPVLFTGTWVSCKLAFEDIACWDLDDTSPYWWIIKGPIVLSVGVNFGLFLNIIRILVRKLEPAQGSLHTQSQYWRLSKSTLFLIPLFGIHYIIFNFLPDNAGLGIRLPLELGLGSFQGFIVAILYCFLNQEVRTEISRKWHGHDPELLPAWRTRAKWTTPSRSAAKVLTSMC
Experimental: Receptor binding affinities in vitro. Preparation of human pituitary membrane fractions and receptor binding of analogs of GH-RH were performed (Halmos G, Rekasi Z, Szoke B, Schally A V. (1993) Receptor 3:87-97). Human pituitary was purchased from the National Hormone and Peptide Program. […] Relative affinities compared to hGH-RH(1-29)NH2 were calculated as the ratio of IC50 (dose causing 50% inhibition of specific binding to receptors) of the tested peptides to the IC50 of hGH-RH(1-29)NH2. The values were calculated from technical duplicate tubes.
Nineteen new AVR analogs of GHRH were tested in the receptor binding assay. Table 6 presents the IC50 values of GHRH antagonists to membrane GHRH-receptors binding on human anterior pituitary cells.

SMILES | Relative inhibitory potency, Lung HCC827 (HCC827 cells) | Relative inhibitory potency, Pancreatic CFPAC-1 (CFPAC-1 cells) | pIC50 ([1]; human anterior pituitary membranes, mean of two to three determinations, read-out: IC50) | Binding affinity to membrane receptors of human pituitary cells [1]
CCCC[C@H](NC(=O)[C@@H](NC(=O)[C@H](CC(=O)O)NC(=O)[C@H](CCC(N)=O)NC(=O)[C@H](CC(C)C)NC(=O)[C@H](CC(C)C)NC(=O)[C@H](CCCN)NC(=O)[C@H](Cc1c[nH]cn1)NC(=O)[C@H](C)NC(=O)[C@H](CO)NC(=O)[C@H](CC(C)C)NC(=O)[C@H](CCC(N)=O)NC(=O)[C@H](CC)NC(=O)[C@H](CC(C)C)NC(=O)[C@@H](NC(=O)[C@H](CCCN)NC(=O)[C@H](Cc1c[nH]cn1)NC(=O)[C@H](Cc1c(F)c(F)c(F)c(F)c1F)NC(=O)[C@H](CCCCNC(=N)N)NC(=O)[C@H](C)NC(=O)[C@@H](NC(=O)[C@H](Cc1ccc(Cl)cc1)NC(=O)[C@@H](NC(=O)[C@H](C)NC(=O)[C@H](CC(=O)O)NC(=O)[C@@H](CCCNC(=N)N)NC(=O)[C@H](Cc1ccc(O)cc1)NC(=O)CCCCCCCCCCCNC(=O)Cc1c(F)c(F)c(F)c(F)c1F)[C@@H](C)CC)[C@@H](C)O)C(C)C)[C@@H](C)CC)C(=O)N[C@H](CCCNC(=N)N)C(=O)N[C@@H](CCCCNC(=N)N)C(=O)NC [AVR-542, 5FPhAC-Ada-Tyr-DArg-Asp-Ala-Ile-Cpa-Thr-Ala-Har-5FPhe-His-Orn-Val-Leu-Abu-Gln-Leu-Ser-Ala-His-Orn-Leu-Leu-Gln-Asp-Ile-Nle-DArg-Har-NHCH3] ({Phenylacetyl(2,3,4,5,6-F5)-12Ado}-Y[dR]DAI[Phe(4-Cl)]TA[hArg][Phe(F5)]H[Orn]VL[Abu]QLSAH[Orn]LLQDI[Nle][dR][hArg]-NHMe) | 2.649 | 1.312 | 9.68 | 
CCCC[C@H](NC(=O)[C@@H](NC(=O)[C@H](CC(=O)O)NC(=O)[C@H](CCC(N)=O)NC(=O)[C@H](CC(C)C)NC(=O)[C@H](CC(C)C)NC(=O)[C@H](CCCN)NC(=O)[C@H](Cc1c[nH]cn1)NC(=O)[C@H](C)NC(=O)[C@H](CO)NC(=O)[C@H](CC(C)C)NC(=O)[C@H](CCC(N)=O)NC(=O)[C@H](CC)NC(=O)[C@H](CC(C)C)NC(=O)[C@@H](NC(=O)[C@H](CCCN)NC(=O)[C@H](Cc1c[nH]cn1)NC(=O)[C@H](Cc1c(F)c(F)c(F)c(F)c1F)NC(=O)[C@H](CCCCNC(=N)N)NC(=O)[C@H](C)NC(=O)[C@@H](NC(=O)[C@H](Cc1ccc(Cl)cc1)NC(=O)[C@@H](NC(=O)[C@H](C)NC(=O)[C@H](CC(=O)O)NC(=O)[C@@H](CCCNC(=N)N)NC(=O)[C@H](Cc1ccc(O)cc1)NC(=O)CCCCCCCCCCCNC(=O)Cc1c(F)c(F)c(F)c(F)c1F)[C@@H](C)CC)[C@@H](C)O)C(C)C)[C@@H](C)CC)C(=O)N[C@H](CCCNC(=N)N)C(=O)N[C@@H](CCCCNC(=N)N)C(=O)NCCCCCCCCCCCC(N)=O [AVR-552, 5FPhAC-Ada-Tyr-DArg-Asp-Ala-Ile-Cpa-Thr-Ala-Har-5FPhe-His-Orn-Val-Leu-Abu-Gln-Leu-Ser-Ala-His-Orn-Leu-Leu-Gln-Asp-Ile-Nle-DArg-Har-Ada-NH2] ({Phenylacetyl(2,3,4,5,6-F5)-12Ado}-Y[dR]DAI[Phe(4-Cl)]TA[hArg][Phe(F5)]H[Orn]VL[Abu]QLSAH[Orn]LLQDI[Nle][dR][hArg][12Ado]-NH2) | 4.376 | 1.57 |  | higher binding affinity in comparison to MIA-602; also recorded: highest binding affinities
CCCC[C@H](NC(=O)[C@@H](NC(=O)[C@H](CC(=O)O)NC(=O)[C@H](CCC(N)=O)NC(=O)[C@H](CC(C)C)NC(=O)[C@H](CC(C)C)NC(=O)[C@H](CCCN)NC(=O)[C@H](Cc1c[nH]cn1)NC(=O)[C@H](C)NC(=O)[C@H](CO)NC(=O)[C@H](CC(C)C)NC(=O)[C@H](CCC(N)=O)NC(=O)[C@H](CC)NC(=O)[C@H](CC(C)C)NC(=O)[C@@H](NC(=O)[C@H](CCCN)NC(=O)[C@H](Cc1c[nH]cn1)NC(=O)[C@H](Cc1ccc(OC)cc1)NC(=O)[C@H](CCCCNC(=N)N)NC(=O)[C@H](C)NC(=O)[C@@H](NC(=O)[C@H](Cc1c(F)c(F)c(F)c(F)c1F)NC(=O)[C@@H](NC(=O)[C@H](C)NC(=O)[C@H](CC(=O)O)NC(=O)[C@@H](CCCNC(=N)N)NC(=O)[C@H](Cc1ccc(O)cc1)NC(=O)CCCCCCCCCCCNC(=O)Cc1c(F)c(F)c(F)c(F)c1F)[C@@H](C)CC)[C@@H](C)O)C(C)C)[C@@H](C)CC)C(=O)N[C@H](CCCNC(=N)N)C(=O)N[C@@H](CCCCNC(=N)N)C(=O)NCCCCCCCCCCCC(N)=O [AVR-553, 5FPhAC-Ada-Tyr-DArg-Asp-Ala-Ile-5FPhe-Thr-Ala-Har-Tyr(Me)-His-Orn-Val-Leu-Abu-Gln-Leu-Ser-Ala-His-Orn-Leu-Leu-Gln-Asp-Ile-Nle-DArg-Har-Ada-NH2] ({Phenylacetyl(2,3,4,5,6-F5)-12Ado}-Y[dR]DAI[Phe(F5)]TA[hArg]Y(Me)H[Orn]VL[Abu]QLSAH[Orn]LLQDI[Nle][dR][hArg][12Ado]-NH2) |  |  |  | higher binding affinity in comparison to MIA-602; also recorded: highest binding affinities
